From PMC12528448, “Resistance to CDK7 inhibitors directed by acquired mutation of a conserved residue in cancer cells” (The EMBO Journal, 2025)
Values joined by “and” are separate entries in the source; they are usually repeats but may differ in a detail not shown here. Equal values may be shown once.

Tests used:
22Rv1-SamR cells = assay: Growth assay (SRB), Samuraciclib-resistant 22Rv1; type: cell-based, human; settings: for % Growth: 22Rv1 SamR, 4 days, biological reps
Protocol: (§1) To determine the IC50 of drug treatments on growth, cells were seeded in 96-well culture plates. Two days after seeding, the cells were treated with increasing concentrations of drugs and incubated for 4 days. Cell number was determined using the SRB assay (Skehan et al, [1990]), and IC50 values were calculated using non-linear regression curve fitting in GraphPad Prism v10. For all other growth experiments, cells were seeded into 96-well plates, and appropriate drugs were added 2 days after seeding. Cells were then incubated in an IncuCyte Zoom live-cell imager, with cell confluency measured every 6 h. Cell doubling times were determined by non-linear curve fitting (exponential growth equation) in GraphPad Prism v10.

MCF7-CDK7-D97N cells = assay: Growth assay (SRB), MCF7 CDK7-D97N knock-in; type: cell-based, human; settings: 4 days; for % Growth: MCF7 CDK7 D99N, biological reps
Protocol: as §1
Alt-R^TM S.p. Cas9 nuclease V3, Alt-R CRISPR-Cas9 crRNA, TracrRNA and the donor templates were obtained from Integrated DNA Technologies. […] Cells were treated with 0.7 µM of Alt-R HDR Enhancer V2 to improve HRD efficiency. Sequences of the CRISPRs in the crRNA and the donor templates are shown in the Reagents and tools table. Donor templates were designed to include non-coding substitutions to aid genome DNA PCR for identifying knock-in events and to facilitate cloning; these substitutions are noted in the Reagents and tools table.

CDK7-D97N = target: T1, CDK7-D97N (Homo sapiens, UniProt P50613, D97N); assay: NanoBRET Target Engagement assay, K-10 tracer displacement in HEK293 cells; type: binding; settings: CDK7 D97N, replicates N1-N3
T1 construct: expressed in transfected cells; host or cells: HEK293
T1 sequence (P50613 whole entry D97N): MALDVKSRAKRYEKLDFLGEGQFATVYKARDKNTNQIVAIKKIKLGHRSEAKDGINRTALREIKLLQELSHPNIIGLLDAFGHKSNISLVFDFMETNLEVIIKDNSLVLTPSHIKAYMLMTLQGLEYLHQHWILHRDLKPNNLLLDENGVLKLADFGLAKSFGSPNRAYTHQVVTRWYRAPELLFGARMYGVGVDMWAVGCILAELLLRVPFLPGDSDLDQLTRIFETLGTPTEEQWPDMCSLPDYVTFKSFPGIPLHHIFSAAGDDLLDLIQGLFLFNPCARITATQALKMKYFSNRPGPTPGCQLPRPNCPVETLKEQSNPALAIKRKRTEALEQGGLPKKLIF
Protocol: (§2) Energy transfer between the NanoLuc fusion protein and a cell-permeable fluorescent energy transfer probe facilitates quantitative determination of target engagement in live cells (Wells et al, [2020]). Assays were conducted according to this previous report, using the optimal CDK7 probe, K-10, at a concentration of 0.5 µM.
(§3) CDK4, CDK6 and CDK7 and the respective mutant sequences, obtained as synthesised DNA fragments from IDT (Leuven), were cloned by HiFi DNA assembly (New England Biolabs) into the pNLF1-N NanoLuc protein fusion vector (Promega). HEK293 cells, transiently transfected with NanoLuc-CDK fusion constructs, were used for activity determination, utilising the NanoBRET Target Engagement Intracellular Kinase Assay. A CCND1 expression construct was co-transfected with the NanoLuc-CDK4 and NanoLuc-CDK6 fusion constructs. The recommended cell-permeable energy transfer probe, K-10, was used to assess target engagement, as detailed in the manufacturer’s methods (Promega). […] The BRET ratio (mBU) was calculated as acceptor emission (590–610 nm)/donor emission (410–490 nm) × 1000. The mBU values were plotted against the energy probe concentrations to determine maximal binding (Bmax) and Kd values. BRET signal competition by CDK inhibitors was used to determine compound binding to WT and mutant CDKs. […] Inhibitor binding was determined using a fourfold dilution series. mBU values were plotted against test compound concentrations in the presence of K10 tracer. EC50 values were determined using nonlinear regression curve-fitting. Test compound occupancy (%) was calculated using the equation [1 − (x − z)/(y − z)] × 100, where x = mBU in the presence of the test compound and K-10 tracer, y = mBU with K-10 tracer and vehicle control, and z = mBU in the absence of the K-10 tracer or test compound (Wells et al, [2020]).

CDK7-WT = target: T2, CDK7-WT (Homo sapiens, UniProt P50613); assay: as above; type: binding; settings: CDK7 WT, replicates N1-N3
T2 construct: expressed in transfected cells; host or cells: HEK293
T2 sequence (P50613 whole entry): as the sequence (P50613 whole entry D97N) above, with N97D counted along it
Protocol: as §2, §3

## CN(C)C/C=C/C(=O)Nc1ccc(C(=O)Nc2cccc(Nc3ncc(Cl)c(-c4c[nH]c5ccccc45)n3)c2)cc1 [THZ1]
22Rv1-SamR cells; 22Rv1-SamR
  Sensitivity in growth assays: remained sensitive
22Rv1-SamR cells; Log10 Conc. (nM) 0.09
  % Growth: 83.75% and 87.25%
22Rv1-SamR cells; Log10 Conc. (nM) 0.69
  % Growth: 68.41% and 67.61%
22Rv1-SamR cells; Log10 Conc. (nM) 1.29
  % Growth: 30.25% and 41.41%
22Rv1-SamR cells; Log10 Conc. (nM) 1.89
  % Growth: -7.69% and -2.73%
22Rv1-SamR cells; Log10 Conc. (nM) 2.49
  % Growth: -11.43% and -7.53%
22Rv1-SamR cells; Log10 Conc. (nM) 3.10
  % Growth: -11.82% and -8.43%
22Rv1-SamR cells; Log10 Conc. (nM) 3.70
  % Growth: -15.22% and -10.53%
22Rv1-SamR cells; Log10 Conc. (nM) -0.52
  % Growth: 93.15% and 99.90%
22Rv1-SamR cells; Log10 Conc. (nM) -1.12
  % Growth: 93.43% and 95.60%
MCF7-CDK7-D97N cells; MCF7-CDK7-D97N, SRB
  IC50: 68.7 nM
MCF7-CDK7-D97N cells; Log10 Conc. (nM) 0.09
  % Growth: 97.12% and 98.47% and 91.37%
MCF7-CDK7-D97N cells; Log10 Conc. (nM) 0.69
  % Growth: 86.82% and 92.10% and 89.13%
MCF7-CDK7-D97N cells; Log10 Conc. (nM) 1.29
  % Growth: 76.30% and 76.07% and 72.54%
MCF7-CDK7-D97N cells; Log10 Conc. (nM) 1.89
  % Growth: 35.33% and 47.81% and 46.77%
MCF7-CDK7-D97N cells; Log10 Conc. (nM) 2.49
  % Growth: -1.00% and 8.40% and 7.81%
MCF7-CDK7-D97N cells; Log10 Conc. (nM) -0.52
  % Growth: 99.89% and 102.56% and 100.45%
MCF7-CDK7-D97N cells; Log10 Conc. (nM) -1.12
  % Growth: 96.07% and 101.58% and 94.36%
CDK7-D97N; Log10 Conc. (nM) 0.09
  % Occupacy: 9.16% and 2.67% and 0.07%
CDK7-D97N; Log10 Conc. (nM) 0.69
  % Occupacy: 13.92% and 3.61% and 4.36%
CDK7-D97N; Log10 Conc. (nM) 1.29
  % Occupacy: 29.03% and 9.81% and 4.02%
CDK7-D97N; Log10 Conc. (nM) 1.89
  % Occupacy: 74.11% and 30.96% and 26.31%
CDK7-D97N; Log10 Conc. (nM) 2.49
  % Occupacy: 95.10% and 79.08% and 80.38%
CDK7-D97N; Log10 Conc. (nM) 3.10
  % Occupacy: 97.98% and 96.38% and 96.98%
CDK7-D97N; Log10 Conc. (nM) 3.70
  % Occupacy: 98.68% and 99.58% and 99.12%
CDK7-D97N; Log10 Conc. (nM) 4.30
  % Occupacy: 99.99% and 100.77% and 101.05%
CDK7-D97N; Log10 Conc. (nM) -0.52
  % Occupacy: 6.83% and 2.53% and 1.19%
CDK7-D97N; Log10 Conc. (nM) -1.12
  % Occupacy: 11.58% and 4.35% and 1.55%
CDK7-D97N; Log10 Conc. (nM) -1.72
  % Occupacy: 7.10% and 3.74% and 2.78%
CDK7-WT; Log10 Conc. (nM) 0.09
  % Occupacy: 16.74% and 4.33% and 5.86%
CDK7-WT; Log10 Conc. (nM) 0.69
  % Occupacy: 17.70% and 6.32% and 7.28%
CDK7-WT; Log10 Conc. (nM) 1.29
  % Occupacy: 29.22% and 3.65% and 10.56%
CDK7-WT; Log10 Conc. (nM) 1.89
  % Occupacy: 53.51% and 14.09% and 19.55%
CDK7-WT; Log10 Conc. (nM) 2.49
  % Occupacy: 85.19% and 65.85% and 67.10%
CDK7-WT; Log10 Conc. (nM) 3.10
  % Occupacy: 97.70% and 100.48% and 92.33%
CDK7-WT; Log10 Conc. (nM) 3.70
  % Occupacy: 102.14% and 100.08% and 100.97%
CDK7-WT; Log10 Conc. (nM) 4.30
  % Occupacy: 101.17% and 106.00% and 102.12%
CDK7-WT; Log10 Conc. (nM) -0.52
  % Occupacy: 21.00% and 8.28% and 9.27%
CDK7-WT; Log10 Conc. (nM) -1.12
  % Occupacy: 15.97% and 8.08% and 8.28%
CDK7-WT; Log10 Conc. (nM) -1.72
  % Occupacy: 12.78% and 7.38% and 8.51%
